# Calls of active or inactive are those of the source. The calls are words filed in the database; no cut-off is given here.
# Tests used:
# NIH/3T3 [1] = test: Inhibition of SAG-induced hedgehog signalling in mouse NIH/3T3 cells assessed as reduction in Gli1 mRNA expression at 0.1 to 10 uM measured after 6 hrs by RT-PCR analysis; format: cell-based; settings: dose 0.1-10 µM
# NIH/3T3 [2] = test: Inhibition of SAG-induced hedgehog signalling in mouse NIH/3T3 cells assessed as reduction in Ptc mRNA expression at 0.1 to 10 uM measured after 6 hrs by RT-PCR analysis; format: cell-based; settings: dose 0.1-10 µM
# NIH/3T3 [3] = test: Inhibition of SAG-induced hedgehog signalling in mouse NIH/3T3 cells assessed as reduction in Shh mRNA expression at 0.1 to 10 uM measured after 6 hrs by RT-PCR analysis; format: cell-based; settings: dose 0.1-10 µM
# NIH/3T3 [4] = test: Inhibition of hedgehog signalling in mouse NIH/3T3 cells assessed as reduction in Gli1 mRNA expression at 0.1 to 10 uM measured after 6 hrs by RT-PCR analysis; format: cell-based; settings: dose 0.1-10 µM
# NIH/3T3 [5] = test: Inhibition of hedgehog signalling in mouse NIH/3T3 cells assessed as reduction in Ptc mRNA expression at 0.1 to 10 uM measured after 6 hrs by RT-PCR analysis; format: cell-based; settings: dose 0.1-10 µM
# NIH/3T3 [6] = test: Inhibition of hedgehog signalling in mouse NIH/3T3 cells assessed as reduction in Shh mRNA expression at 0.1 to 10 uM measured after 6 hrs by RT-PCR analysis; format: cell-based; settings: dose 0.1-10 µM
# NIH/3T3 [7] = test: Inhibition of SAG-induced hedgehog signalling in mouse NIH/3T3 cells assessed as reduction in Gli1 mRNA expression at > 1 uM measured after 6 hrs by RT-PCR analysis; format: cell-based; settings: dose microM >1, time 6.0 hrs
# NIH3T3 [8] = test: Cytotoxicity against mouse NIH/3T3 cells assessed as reduction in cell viability at 1 to 10 uM incubated for 6 hrs by MTT assay; format: cell-based; settings: nih3t3, 6 h, dose 1-10 µM
# NIH3T3 [9] = test: Cytotoxicity against mouse NIH/3T3 cells assessed as reduction in cell viability at 1 to 10 uM irradiated with 4 J/cm2 light followed by compound exposure and measured after 6 hrs by MTT assay; format: cell-based; settings: nih3t3, 6 h, dose 1-10 µM
# [10] = tested on: Cerebellar granule neurone; test: Antiproliferative activity against ICR mouse cerebellar granule neurons assessed as reduction in Ki67 expression at 100 nM irradiated with 4 J/cm2 light followed by incubation with compound for 48 hrs by immunostaining analysis; format: functional, tissue-based
# [11] = Effect on differentiation of ICR mouse cerebellar granule neuron assessed as effect on Ki67-positive cells with low neurites at 100 nM incubated for 48 hrs by TUBB3 staining based immunofluorescence assay; format: tissue-based; settings: cerebellar granule neurone, 0.1 µM
# [12] = Effect on differentiation of ICR mouse cerebellar granule neuron assessed as effect on neurite length of Ki67-positive cells at 100 nM incubated for 48 hrs by TUBB3 staining based immunofluorescence assay; format: tissue-based; settings: cerebellar granule neurone, 0.1 µM
# [13] = Effect on differentiation of ICR mouse cerebellar granule neuron assessed as effect on Ki67-negative cells with neurite outgrowth at 100 nM incubated for 48 hrs by TUBB3 staining based immunofluorescence assay; format: tissue-based; settings: cerebellar granule neurone, 0.1 µM
# [14] = Effect on differentiation of ICR mouse cerebellar granule neuron assessed as effect on neurite length of Ki67-negative cells at 100 nM incubated for 48 hrs by TUBB3 staining based immunofluorescence assay; format: tissue-based; settings: cerebellar granule neurone, 0.1 µM
# [15] = Photostability of compound assessed as drug degradation at 1 mM irradiated with 2 J/cm2 light by HPLC/MS analysis; format: physicochemical; settings: read-out: Drug degradation
# [16] = Photostability of compound assessed as drug degradation at 1 mM irradiated with 8 J/cm2 light by HPLC/MS analysis; format: physicochemical; settings: read-out: Drug degradation
# NIH/3T3 [17] = test: Inhibition of hedgehog signalling in mouse NIH/3T3 cells assessed as reduction in Gli1 mRNA expression at 1 uM measured after 6 hrs by RT-PCR analysis; format: cell-based
# NIH/3T3 [18] = test: Inhibition of SAG-induced hedgehog signalling in mouse NIH/3T3 cells assessed as reduction in Gli1 mRNA expression at 1 uM irradiated with 4 J/cm2 light followed by compound exposure and measured after 6 hrs by RT-PCR analysis; format: cell-based
# [19] = tested on: Cerebellar granule neurone; test: Antiproliferative activity against ICR mouse cerebellar granule neurons assessed as reduction in Ki67 expression at 100 nM incubated for 48 hrs by immunostaining analysis; format: functional, tissue-based
# [20] = Effect on differentiation of ICR mouse cerebellar granule neuron assessed as effect on Ki67-positive cells with low neurites at 100 nM irradiated with 4 J/cm2 light followed by incubation with compound for 48 hrs by TUBB3 staining based immunofluorescence assay; format: tissue-based; settings: cerebellar granule neurone, 0.1 µM
# [21] = Effect on differentiation of ICR mouse cerebellar granule neuron assessed as effect on neurite length of Ki67-positive cells at 100 nM irradiated with 4 J/cm2 light followed by incubation with compound for 48 hrs by TUBB3 staining based immunofluorescence assay; format: tissue-based; settings: cerebellar granule neurone, 0.1 µM
# [22] = Effect on differentiation of ICR mouse cerebellar granule neuron assessed as effect on Ki67-negative cells with neurite outgrowth at 100 nM irradiated with 4 J/cm2 light followed by incubation with compound for 48 hrs by TUBB3 staining based immunofluorescence assay; format: tissue-based; settings: cerebellar granule neurone, 0.1 µM
# [23] = Effect on differentiation of ICR mouse cerebellar granule neuron assessed as effect on neurite length of Ki67-negative cells at 100 nM irradiated with 4 J/cm2 light followed by incubation with compound for 48 hrs by TUBB3 staining based immunofluorescence assay; format: tissue-based; settings: cerebellar granule neurone, 0.1 µM
SMILES,inhibition (NIH/3T3 [1]),inhibition (NIH/3T3 [2]),inhibition (NIH/3T3 [3]),inhibition (NIH/3T3 [4]),inhibition (NIH/3T3 [5]),inhibition (NIH/3T3 [6]),Activity (NIH3T3 [8]),Activity (NIH3T3 [9]),Activity [10],Activity [11],Activity [12],Activity [13],Activity [14],also measured
CC1=C2C[C@H]3[C@@H](CC=C4C[C@@H](O)CC[C@@]43C)[C@@H]2CC[C@]12O[C@@H]1C[C@H](C)CN[C@H]1[C@H]2C,Active,Active,inactive,inactive,inactive,inactive,,,,,,,,
CCCN[C@H]1CC[C@H](N(Cc2cccc(-c3ccncc3)c2)C(=O)c2sc3ccccc3c2Cl)CC1,Active,Active,inactive,inactive,inactive,inactive,Non-Toxic,Non-Toxic,Active,Non-Toxic,Non-Toxic,Non-Toxic,Non-Toxic,inhibition (NIH/3T3 [7]): Active
CCCN(C(=O)OC(C)c1cc(OC)c(OCCCC(=O)O)cc1[N+](=O)[O-])[C@H]1CC[C@H](N(Cc2cccc(-c3ccncc3)c2)C(=O)c2sc3ccccc3c2Cl)CC1 (stereo partly specified),,,,,,,Non-Toxic,Non-Toxic,Active,Non-Toxic,Non-Toxic,Non-Toxic,Non-Toxic,degraded at 1000 µM [15]: 90%; degraded at 1000 µM [16]: 100%; inhibition (NIH/3T3 [17]): inactive; inhibition (NIH/3T3 [18]): Active; Activity [19]: inactive; Activity [20]: Non-Toxic; Activity [21]: Non-Toxic; Activity [22]: Non-Toxic; Activity [23]: Non-Toxic
